Source: patent EP3521435A1, “A HIGH STRINGENCY SELECTION SYSTEM FOR PROTEIN EXPRESSION IN PROLINE-AUXOTROPHIC CELLS” (Bayer AG, priority 2018, dated 2019)

Experiments:
CHO-K1 cells [1] = assay: Fed-batch fermentation in shake flasks of human IgG1 expressing stable cell populations; assay type: cell-based, Chinese hamster; conditions: non-selecting conditions; for Productivity profile: human IgG1
CHO-K1 cells [2] = assay: as above; assay type: cell-based, Chinese hamster; conditions: selected in CD-Fusion + 10 µg/ml Puromycin (pJF1576), non-selecting conditions; for Productivity profile: human IgG1
From the text: To test the performance of P5CS selection in combination with DHP in a production cell line development setting (i.e. only a single selection marker in expression vector), vectors with P5CS selection marker in place of Puromycin selection marker containing human IgG1 expression cassettes were generated and tested. For this experiment, the vector pJF1979 was taken as a reference, with Puromycin selection marker placed downstream of the human IgG1 expression cassette. For comparison, the vectors pJF1969 and pJF1970 were used, which contained short and long isoform of P5CS in place of Puromycin selection marker downstream of human IgG1 expression cassette. As control, vector pJF1576 from Example 8 was used, which contained both P5CS (upstream of human IgG1 expression cassette) and Puromycin (downstream of human IgG1 expression cassette) selection markers. […] The fed-batch was without pH control during cultivation and no additional glucose was fed apart from that present in feeding solutions. Table 22, Table 23 and Table 24 show viable cell density, viability and productivity profiles of cell populations cultured in fed-batch fermentation in shake flasks under non-selecting conditions (i.e. production medium containing proline and no additional selective agents like Puromycin or DHP) after inoculation at 3e5 viable cells/ml. […] Table 21: Cell viabilities determined post-transfection on day 21.

murine P5CS long isoform = target: T1, murine P5CS long isoform (Mus musculus, UniProt Q9Z110); conditions: Hu et al.; cited from earlier work
T1 sequence (Q9Z110 1-795): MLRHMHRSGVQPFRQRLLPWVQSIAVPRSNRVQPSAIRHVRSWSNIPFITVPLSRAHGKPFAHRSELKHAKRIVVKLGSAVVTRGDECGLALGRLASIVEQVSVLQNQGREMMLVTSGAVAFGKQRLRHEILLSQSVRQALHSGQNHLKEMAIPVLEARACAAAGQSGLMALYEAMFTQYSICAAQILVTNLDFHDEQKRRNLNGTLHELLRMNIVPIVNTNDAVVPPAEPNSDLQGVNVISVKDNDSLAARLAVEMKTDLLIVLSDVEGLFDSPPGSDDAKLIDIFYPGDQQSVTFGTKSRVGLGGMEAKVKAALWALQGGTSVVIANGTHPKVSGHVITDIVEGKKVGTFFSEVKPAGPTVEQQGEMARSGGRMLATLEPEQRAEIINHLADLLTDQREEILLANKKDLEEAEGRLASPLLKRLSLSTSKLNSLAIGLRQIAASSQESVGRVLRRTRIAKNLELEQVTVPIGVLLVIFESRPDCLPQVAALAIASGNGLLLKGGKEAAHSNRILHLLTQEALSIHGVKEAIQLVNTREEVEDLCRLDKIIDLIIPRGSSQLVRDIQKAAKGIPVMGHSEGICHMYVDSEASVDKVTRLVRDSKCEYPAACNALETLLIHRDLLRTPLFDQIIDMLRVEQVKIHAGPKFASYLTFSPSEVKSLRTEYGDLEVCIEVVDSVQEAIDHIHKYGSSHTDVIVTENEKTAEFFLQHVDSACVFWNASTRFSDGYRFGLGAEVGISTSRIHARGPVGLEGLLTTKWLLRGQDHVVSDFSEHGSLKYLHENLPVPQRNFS

[3] = Day 3 after inoculation, selected in CD-Fusion + 10 µg/ml Puromycin (pJF1576)
[4] = Day 3 after inoculation, selected in CD-Fusion + 10 µg/ml Puromycin (pJF1579)
[5] = Day 5 after inoculation, selected in CD-Fusion + 10 µg/ml Puromycin (pJF1579)
[6] = Day 5 after inoculation, selected in CD-Fusion + 10 µg/ml Puromycin (pJF1576)
[7] = Day 7 after inoculation, selected in CD-Fusion + 10 µg/ml Puromycin (pJF1579)
[8] = Day 10 after inoculation, selected in CD-Fusion + 10 µg/ml Puromycin (pJF1576)
[9] = Day 10 after inoculation, selected in CD-Fusion + 10 µg/ml Puromycin (pJF1579)
[10] = Day 12 after inoculation, selected in CD-Fusion + 10 µg/ml Puromycin (pJF1579)
[11] = Day 14 after inoculation, selected in CD-Fusion + 10 µg/ml Puromycin (pJF1576)
[12] = Day 14 after inoculation, selected in CD-Fusion + 10 µg/ml Puromycin (pJF1579)

**Q.** What does the source list for `COc1ccc(C[C@H](N)C(=O)N[C@H]2[C@@H](O)[C@H](n3cnc4c(N(C)C)ncnc43)O[C@@H]2CO)cc1` [Puromycin]?
**A.** Viability profile (CHO-K1 cells [1]; Day 0 after inoculation, selected in CD-Fusion + 10 µg/ml Puromycin (pJF1576)): 99.8%; Viability profile (CHO-K1 cells [1]; Day 0 after inoculation, selected in CD-Fusion + 10 µg/ml Puromycin (pJF1579)): 99.8%; Productivity profile (CHO-K1 cells [1]; [3]): 13.6 mg/L; Productivity profile (CHO-K1 cells [1]; [4]): 12.4 mg/L; Viability profile (CHO-K1 cells [1]; [3]): 99.9%; Viable cell density profile (CHO-K1 cells [1]; [3]): 1,4E +06 VCD/ml; Viability profile (CHO-K1 cells [1]; [4]): 99.8%; Viable cell density profile (CHO-K1 cells [1]; [4]): 1,8E +06 VCD/ml; Productivity profile (CHO-K1 cells [1]; [5]): 24.4 mg/L; Viability profile (CHO-K1 cells [1]; [6]): 99.8%; Viable cell density profile (CHO-K1 cells [1]; [6]): 4,8E +06 VCD/ml; Viability profile (CHO-K1 cells [1]; [5]): 99.9%; Viable cell density profile (CHO-K1 cells [1]; [5]): 5,6E +06 VCD/ml; Productivity profile (CHO-K1 cells [1]; [7]): 60.0 mg/L; Viable cell density profile (CHO-K1 cells [1]; Day 7 after inoculation, selected in CD-Fusion + 10 µg/ml Puromycin (pJF1576)): 9,5E +06 VCD/ml; Viability profile (CHO-K1 cells [1]; [7]): 99.2%; Viable cell density profile (CHO-K1 cells [1]; [7]): 1,2E +07 VCD/ml; Productivity profile (CHO-K1 cells [1]; [8]): 182.0 mg/L; Productivity profile (CHO-K1 cells [1]; [9]): 155.1 mg/L; Viable cell density profile (CHO-K1 cells [1]; [8]): 1,2E +07 VCD/ml; Viability profile (CHO-K1 cells [1]; [9]): 97.9%; Viable cell density profile (CHO-K1 cells [1]; [9]): 1,5E +07 VCD/ml; Productivity profile (CHO-K1 cells [1]; [10]): 265.9 mg/L; Viability profile (CHO-K1 cells [1]; Day 12 after inoculation, selected in CD-Fusion + 10 µg/ml Puromycin (pJF1576)): 96.2%; Viability profile (CHO-K1 cells [1]; [10]): 97.5%; Viable cell density profile (CHO-K1 cells [1]; [10]): 1,0E +07 VCD/ml; Productivity profile (CHO-K1 cells [1]; [11]): 442.2 mg/L; Productivity profile (CHO-K1 cells [1]; [12]): 372.0 mg/L; Viability profile (CHO-K1 cells [1]; [11]): 86.2%; Viable cell density profile (CHO-K1 cells [1]; [11]): 7,4E +06 VCD/ml; Viability profile (CHO-K1 cells [1]; [12]): 92.7%; Viable cell density profile (CHO-K1 cells [1]; [12]): 9,7E +06 VCD/ml; Productivity profile (CHO-K1 cells [2]; Day 5 after inoculation): 26.6 mg/L; Productivity profile (CHO-K1 cells [2]; Day 7 after inoculation): 68.9 mg/L; Viability profile (CHO-K1 cells [2]; Day 7 after inoculation): 99.3%; Viability profile (CHO-K1 cells [2]; Day 10 after inoculation): 97.0%; Productivity profile (CHO-K1 cells [2]; Day 12 after inoculation): 304.9 mg/L; Viable cell density profile (CHO-K1 cells [2]; Day 12 after inoculation): 9,1E +06 VCD/ml

**Q.** For `NCCC[C@H](N)C(=O)O` [Orn, L-Ornithine], which Ornithine inhibition (murine P5CS long isoform) is on record?
**A.** insensitive
